Test results published in patent US11390617B2, “Methods of treating non-Hodgkin lymphoma using 2-(2,6-dioxopiperidin-3-yl)-4-((2-fluoro-4-((3-morpholinoazetidin-1-yl)methyl)benzyl)amino)isoindoline-1,3-dione” (Celgene Corporation, priority 2019, dated 2022).

Assays:
Assay in all cases: Viability/apoptosis flow cytometry assay, DLBCL cell lines with acquired resistance to doxorubicin and parental lines
Format in all cases: cell-based
WSU-DLCL2 DoxoR = tested on: WSU-DLCL2 DoxoR
Procedure: (§1) The following exemplary anti-proliferative assay uses exemplary DLBCL cell lines with acquired resistance to doxorubicin (Table 7). The in vitro growth inhibitory activity of Compound described herein was evaluated using a 384-well flow cytometry assay. The activity of Compound 1 was also evaluated in cell lines with acquired resistance to doxorubicin (one of the curative agents in the DLBCL standard of care regimen R-CHOP [rituximab, cyclophosphamide, doxorubicin, vincristine, and prednisone]) (Table 7).
(§2) The cell lines in Table 7 were plated in 96-well flat bottom plates and assessed with increasing concentrations of compound ranging from 0.0015 to 10 μM or dimethyl sulfoxide (DMSO) control. The final concentration of DMSO was 0.1% (v/v). Following the addition of Compound 1 or DMSO and incubation for 120 hours, cell number and cell death were analyzed by flow cytometry (Attune®, Thermo Fisher) using Annexin V and the vital dye, 7-AAD. Phosphatidylserine translocates from the inner layer to the outer layer of the cell membrane early in apoptosis and Annexin V binds to the exposed phosphatidylserine found on the surface of an apoptotic cell. The dye 7-AAD is excluded by intact live cells and only stains cells that have died as a result of apoptosis or necrosis.
(§3) Flow cytometry data analysis was then performed using the Flow Jo_v10 software to determine the number of viable cells (Annexin V and 7-AAD double negative staining cells) and percentage of apoptotic cells (Annexin V positive cells) for each condition. The live cell count for every concentration was normalized to the DMSO control (considered as 100%) to calculate the percentage of viable cells remaining after treatment and graphed using GraphPad Prism 7.03. The IC50 (50% inhibitory concentration) and Emax (maximum efficacy eliminating tumor cells achieved) values were then calculated by performing nonlinear regression curve fitting using log(inhibitor) vs. normalized response—variable slope analysis on GraphPad Prism 7.03. Area under the curve (AUC) was calculated by performing area under curve analysis on GraphPad Prism 7.03. Similarly, for apoptosis analysis, the percentage of apoptosis combining both “early” (Annexin V positive and 7-AAD negative) and “late” apoptosis (Annexin V and 7-AAD positive) cell gates relative to DMSO was graphed using GraphPad Prism 7.03. The AUC, EC50 (concentration of Compound 1 that produces half-maximal apoptosis response) and Ymax (maximal percentage of apoptosis achieved) values from apoptosis curves were calculated by performing area under curve analysis and nonlinear regression curve fitting using log(agonist) vs. normalized response—Variable slope analysis on GraphPad Prism 7.03.
(§4) In Table 8, dose-response proliferation curves for the cell lines with acquired resistance to doxorubicin and non-linear curve-fit regression were used to determine IC50, AUC, and Emax for % viable cells (Emax for viability varies between 100 at low doses and 0 at high doses, which corresponds to inhibition of all viable cells), and dose-response apoptosis curves were used to determine the EC50, AUC, and Ymax for % apoptosis (Ymax for apoptosis varies from 0 at low doses and 100 at higher doses which corresponds to death of all cells). Tumor cells were exposed to serial dilutions (0.00015 to 10 μM) of Compound 1 or dimethyl sulfoxide (DMSO) control for 5 days. Viability and apoptosis for all cell lines was determined by Annexin V/7-aminoactinomycin D (7-AAD) flow cytometry.

U2932 DoxoR = conditions: 120 hours
Procedure: as §1, §2, §3, §4

Oci-Ly10 DoxoR = conditions: 120 hours
Procedure: as §1, §2, §3, §4

SUDHL4 DoxoR = tested on: SUDHL4 DoxoR
Procedure: as §1, §2, §3, §4

Oci-Ly10 Parental = conditions: 120 hours
Procedure: as §1, §2, §3, §4

SUDHL4 Parental = tested on: SUDHL4 Parental
Procedure: as §1, §2, §3, §4

[1] = Homo sapiens, read-out: IC50 (% Viable Cells)
[2] = Homo sapiens, SU-DHL-4, 120 hours

## O=C1CC[C@H](N2C(=O)c3cccc(NCc4ccc(CN5CC(N6CCOCC6)C5)cc4F)c3C2=O)C(=O)N1 [Compound 1, (S)-2-(2,6-dioxopiperidin-3-yl)-4-((2-fluoro-4-((3-morpholinoazetidin-1-yl)methyl)benzyl)amino)isoindoline-1,3-dione]
WSU-DLCL2 DoxoR; 120 hours
  AUC (% Viable Cells): 195.9
  AUC (Apoptosis): 74.4
  Emax (% Viable Cells): 8.4%
  Ymax (Apoptosis): 57%
WSU-DLCL2 DoxoR; Homo sapiens, WSUDLCL2, 120 hours
  EC50: 0.4 µM
WSU-DLCL2 DoxoR; Homo sapiens, WSUDLCL2, 120 hours, read-out: IC50 (% Viable Cells)
  IC50: 0.07 µM
U2932 DoxoR
  AUC (% Viable Cells): 256
  AUC (Apoptosis): 15.7
  Emax (% Viable Cells): 27.7%
  Ymax (Apoptosis): 16%
U2932 DoxoR; Homo sapiens
  EC50: 1.12 µM
U2932 DoxoR; [1]
  IC50: 0.25 µM
Oci-Ly10 DoxoR
  AUC (% Viable Cells): 211.8
  AUC (Apoptosis): 27
  Emax (% Viable Cells): 25%
  Ymax (Apoptosis): 19.48%
Oci-Ly10 DoxoR; Homo sapiens
  EC50: 0.64 µM
Oci-Ly10 DoxoR; [1]
  IC50: 0.09 µM
SUDHL4 DoxoR; 120 hours
  AUC (% Viable Cells): 182.4
  AUC (Apoptosis): 84
  Emax (% Viable Cells): 7.5%
  Ymax (Apoptosis): 63.5%
SUDHL4 DoxoR; [2]
  EC50: 0.4 µM
SUDHL4 DoxoR; Homo sapiens, SU-DHL-4, 120 hours, read-out: IC50 (% Viable Cells)
  IC50: 0.072 µM
Oci-Ly10 Parental
  AUC (% Viable Cells): 285.5
  AUC (Apoptosis): 13
  Emax (% Viable Cells): 52%
  Ymax (Apoptosis): 10.12%
Oci-Ly10 Parental; Homo sapiens
  EC50: 0.81 µM
Oci-Ly10 Parental; [1]
  IC50: 0.2 µM
SUDHL4 Parental; 120 hours
  AUC (% Viable Cells): 335
  AUC (Apoptosis): 6
  Emax (% Viable Cells): 75%
  Ymax (Apoptosis): 3.7%
SUDHL4 Parental; [2]
  EC50: 0.2 µM
